Results: publication PMC5413979 (Nature Communications, 2017)

Target: T1, VcINDY (Vibrio cholerae, UniProt Q9KNE0)
T1 construct: gene VC_A0025

O=C(O)CCC(=O)O [succinate]
Km: 220 µM
